Among the data in ChEMBL document CHEMBL1156674, “Exploration of physicochemical properties and molecular modelling studies of 2-sulfonyl-phenyl-3-phenyl-indole analogs as cyclooxygenase-2 inhibitors” (Eur J Med Chem, 2008) are IC50 values, retold here.

One assay concerns the target T1, Prostaglandin G/H synthase 2 (Homo sapiens, UniProt P35354).
T1 sequence (P35354 whole entry): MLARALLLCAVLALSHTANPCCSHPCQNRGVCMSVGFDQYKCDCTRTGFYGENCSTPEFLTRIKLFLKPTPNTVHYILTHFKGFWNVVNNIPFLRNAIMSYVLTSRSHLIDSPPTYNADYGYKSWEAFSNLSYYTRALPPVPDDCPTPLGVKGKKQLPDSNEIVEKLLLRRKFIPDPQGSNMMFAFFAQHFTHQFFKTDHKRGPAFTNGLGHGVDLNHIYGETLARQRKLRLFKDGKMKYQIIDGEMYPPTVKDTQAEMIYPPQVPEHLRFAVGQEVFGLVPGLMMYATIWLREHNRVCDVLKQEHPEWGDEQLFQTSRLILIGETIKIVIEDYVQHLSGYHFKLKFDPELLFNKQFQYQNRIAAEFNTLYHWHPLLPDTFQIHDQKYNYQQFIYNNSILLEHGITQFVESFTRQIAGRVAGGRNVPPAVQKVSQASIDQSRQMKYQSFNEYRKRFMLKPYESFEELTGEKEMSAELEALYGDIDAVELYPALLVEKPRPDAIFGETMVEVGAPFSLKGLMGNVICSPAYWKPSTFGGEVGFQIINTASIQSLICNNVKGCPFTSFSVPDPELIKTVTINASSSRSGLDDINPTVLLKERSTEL
Settings: not given
Compound `COc1ccc(-c2c(-c3ccc(S(C)(=O)=O)cc3)[nH]c3ccccc23)cc1` gave an IC50 of 0.02 nM. Same read-out and setting: next, `CS(=O)(=O)c1ccc(-c2[nH]c3ccccc3c2-c2ccccc2)cc1`: 0.6 nM; `NS(=O)(=O)c1ccc(-c2[nH]c3ccc(Cl)cc3c2-c2ccccc2)cc1`: 0.14 nM; `NS(=O)(=O)c1ccc(-c2[nH]c3ccc(Cl)cc3c2-c2ccc(Cl)cc2)cc1`: 0.54 nM.

`NS(=O)(=O)c1ccc(-c2[nH]c3ccccc3c2-c2ccccc2)cc1` registered a half-inhibitory concentration (IC50) of 0.09 nM. Still for that read-out and setting: next, `CS(=O)(=O)c1ccc(-c2[nH]c3ccccc3c2-c2ccc(Br)cc2)cc1`: 0.37 nM. On the same count and under the same terms, next, `Cc1ccc(-c2c(-c3ccc(S(N)(=O)=O)cc3)[nH]c3ccccc23)cc1C`: 1.46 nM; `CS(=O)(=O)c1ccc(-c2[nH]c3ccccc3c2-c2ccc(Cl)cc2)cc1`: 146 nM. Still for that read-out and setting: next, `Cc1ccc(-c2c(-c3ccc(S(C)(=O)=O)cc3)[nH]c3ccccc23)cc1`: 0.09 nM; `Cc1ccc2[nH]c(-c3ccc(S(N)(=O)=O)cc3)c(-c3ccccc3)c2c1`: 0.02 nM; `Cc1ccc2[nH]c(-c3ccc(S(C)(=O)=O)cc3)c(-c3ccccc3)c2c1`: 0.28 nM.

Compound `NS(=O)(=O)c1ccc(-c2[nH]c3ccccc3c2-c2ccc(O)cc2)cc1` yielded a half-maximal inhibitory concentration (IC50) of 6.44 nM. Still for that read-out and setting: next, `CS(=O)(=O)c1ccc(-c2[nH]c3ccc(Br)cc3c2-c2ccccc2)cc1`: 1.41 nM.

The same assay, now with this note: read-out: IC50.
With `NS(=O)(=O)c1ccc(-c2[nH]c3ccccc3c2-c2ccc(F)cc2)cc1`, the concentration for half-maximal inhibition (IC50) was found to be 5.15 nM. On to `NS(=O)(=O)c1ccc(-c2[nH]c3ccc(F)cc3c2-c2ccccc2)cc1`, for which the IC50 was found to be 2 nM. `CS(=O)(=O)c1ccc(-c2[nH]c3ccc(Cl)cc3c2-c2cccc(Cl)c2)cc1`: the half-maximal inhibitory concentration (IC50) is 0.8 nM. On the same count and under the same terms, next, `NS(=O)(=O)c1ccc(-c2[nH]c3ccc(Cl)cc3c2-c2ccccc2Cl)cc1`: 100 nM; `CC(=O)NS(=O)(=O)c1ccc(-c2[nH]c3ccccc3c2-c2ccccc2)cc1`: 0.18 nM; `NS(=O)(=O)c1ccc(-c2[nH]c3ccc(Br)cc3c2-c2ccccc2)cc1`: 5 nM.

Consider `Cc1ccc(-c2c(-c3ccc(S(N)(=O)=O)cc3)[nH]c3ccccc23)cc1`, for which the half-maximal inhibitory concentration (IC50) stood at 0.07 nM.

As to `NS(=O)(=O)c1ccc(-c2[nH]c3ccc(Cl)cc3c2-c2cccc(Cl)c2)cc1`, the half-inhibitory concentration (IC50) came out at 3.13 nM. On the same count and under the same terms, next, `NS(=O)(=O)c1ccc(-c2[nH]c3ccccc3c2-c2ccc(Cl)cc2)cc1`: 33.5 nM.

On to `CS(=O)(=O)c1ccc(-c2[nH]c3ccc(Cl)cc3c2-c2ccccc2Cl)cc1`, for which the IC50 worked out at 10 nM. Consider `Cc1ccc(-c2c(-c3ccc(S(C)(=O)=O)cc3)[nH]c3ccccc23)cc1C`, for which the half-maximal inhibitory concentration (IC50) is 0.17 nM. On the same count and under the same terms, next, `CS(=O)(=O)c1ccc(-c2[nH]c3ccc(F)cc3c2-c2ccccc2)cc1`: 5 nM.

With `CS(=O)(=O)c1ccc(-c2[nH]c3ccc(Cl)cc3c2-c2ccc(Cl)cc2)cc1`, the IC50 turned out to be 85.1 nM.
